The subject of series [1] is intracellular amastigotes of Trypanosoma cruzi Tulahuen transfected with β-galactosidase strain. The series is described as follows: In vitro trypanocidal activity, β-galactosidase-expressing T. cruzi in L929 fibroblasts. Type of series: cell-based. The following applies: for IC50: intracellular amastigotes, Tulahuen β-galactosidase strain, 96 hours of exposition; for Selectivity index (SI): CC50 (L929)/IC50 (T. cruzi Tulahuen). Here is the method:
The in vitro assays were conducted at the Centro de Pesquisas René Rachou-Fiocruz (FIOCRUZ-MINAS), Minas Gerais, Brazil. To evaluate trypanocidal activity, initial in vitro screening was performed following the protocols described by Buckner et al.[43] and Romanha et al.. In this assay, Tulahuen T. cruzi strain expressing β-galactosidase trypomastigotes and intracellular amastigotes were cultured in mouse L929 fibroblasts in RPMI1640 medium without phenol red and containing 10% fetal bovine serum. Tissue culture microplates with L929 fibroblasts were incubated overnight at 37°C with 5% CO2. Subsequently, the Tulahuen β-galactosidase-expressing trypomastigotes were added at a ratio of 1:10 cells to trypomastigotes for 2 hours. The medium was then replaced with fresh medium, and the cultures were incubated for 48 hours. Following this step, the medium was replaced with a solution of the test compound, diluted in dimethyl sulfoxide (DMSO, less than 1%), in RPMI1640 medium with concentrations ranging from 5 to 20 µM. […] Benznidazole was utilized as a positive control at 1 µg/mL (3.84 µM).
(§1) Because the amount of beta-galactosidase is directly proportional to the number of parasites, trypanocidal activity was assessed by measuring the decrease in beta-galactosidase activity in the treated cultures compared to the infected control culture without treatment. To determine the cytotoxicity of the compounds on L929 cells, absorbance was measured at two wavelengths (570 and 600 nm) after 4-6 hours of incubation with alamarBlue® reagent (Invitrogen Corporation, USA). Cytotoxicity was evaluated by analyzing the difference in reagent reduction between treated cells (TC) and untreated cells (UT) using an equation provided by the manufacturer of alamarBlue®: […]
(§2) Half-maximum inhibitory concentration (IC50) and half-maximum cytotoxicity concentration (CC50) values were determined through linear interpolation[45] using Excel software (Microsoft Corporation, USA). The assay was conducted in triplicate, and the results are expressed as the percentage inhibition of parasite growth Cytotoxicity assay.

Series [2] in a line: Cytotoxicity on L929 cells (alamarBlue). The format is cell-based. The following applies: mouse, L929 fibroblasts (infected with T. cruzi), 96-hour exposure. Here is the method: as §1, §2
In vitro cytotoxicity assessments of the compounds were performed using AlamarBlue®. The cells and experimental conditions mirrored those used for the trypanocidal assay. After a 96-hour exposure of mouse L929 fibroblasts infected with T. cruzi to the test compounds, alamarBlue® was added, and absorbance was measured after an additional 4-6-hour incubation. IC50 values were determined by linear interpolation, and the selectivity index (SI) was calculated as the ratio of CC50 (the concentration causing 50% cytotoxicity) to IC50 (the concentration causing 50% parasitic inhibition). Benznidazole served as the positive control for comparative analysis.

Series [3] relates to U87MG lineage. More on the design: method as in earlier work. To be noted: human glioblastoma cells; cited from earlier work.
In series [4] the test system is Trypanosoma cruzi Y strain. Put plainly: In vivo rapid test, parasitemia in Swiss mice infected with T. cruzi Y strain. The following applies: for Reduction in parasitemia: oral gavage once daily for five days, doses of 10, 50, and 250 mg/kg/day; for Overall performance in vivo compared with BZ / Parasitemia compared to infected untreated animals / Parasitemia compared to the untreated group: oral; for Overall performance in vivo compared with BZ: BZ at 100 mg/kg; for Parasitemia compared to infected untreated animals: doses of 50 and 250 mg/kg/day; for Parasitemia compared to the untreated group: smallest dose 10 mg/kg/day. As for the experimental part: The in vivo assays were conducted at the Laboratório de Pesquisas Clínicas, Escola de Farmácia, Universidade Federal de Ouro Preto (UFOP), Minas Gerais State, Brazil, utilizing only compounds with a selectivity index (SI) exceeding 50 (Table 1).
Swiss female mice aged 28-30 days were obtained from the Centro de Ciência Animal of the Universidade Federal de Ouro Preto (UFOP), Minas Gerais State, Brazil. The animals were housed in a temperature range of 20-24 °C with a 12-hour light-dark cycle, and had ad libitum access to filtered water and commercial feed. The experimental procedures were approved by the institutional Comitê de Ética em Experimentação Animal (CEUA-UFOP), Minas Gerais State, Brazil, Protocol 2157041219.
The mice were intraperitoneally infected with 1x10^4 blood trypomastigotes of the T. cruzi Y strain obtained from mice maintained by successive blood passages (CEUA 2015/50). Infection was confirmed by fresh blood examination (FBE)[46] on the 4th day after infection, and treatment commenced. For the in vivo test, the highest concentration attainable when blending the test compounds in various orally safe vehicles was selected. Canola oil yielded the most favorable results. The compounds were diluted with canola oil to the highest possible concentration of 25 mg/mL. Subsequently, two different dilutions (5x) were prepared, resulting in doses of 250, 50, and 10 mg/kg/day. These doses were administered via oral gavage once daily (group n = 8). In parallel, a control group of mice remained infected and untreated (INT), while another group received treatment with the reference drug (BZ) at a dose of 100 mg/kg. The BZ tablets were crushed with 0.5% gum arabic, and suspended in distilled water.
To evaluate the effectiveness of the compounds in reducing parasitemia, FBE was conducted daily for five consecutive days, during which parasitemia was counted.

The mark [5] stands for this setting: Trypanosoma cruzi, TULAHUEN, L929, 96 h, read-out: IC50.
Where [6] appears, read: Trypanosoma cruzi, TULAHUEN, L929, 96 h, value in brackets, read-out: IC50.
The mark [7] stands for this setting: top concentration limited by solubility (20 to 160 µg/mL).

The source of these data is publication PMC11290850, “Screening of synthetic 1,2,3-triazolic compounds inspired by SRPIN340 as anti-Trypanosoma cruzi agents” (Revista da Sociedade Brasileira de Medicina Tropical, 2024).

Molecules are shown by their SMILES. Entries after “also recorded” stand apart in the source; their conditions may differ. Like-named read-outs stand apart in the source and are kept apart here.

The term IC50 denotes the concentration that inhibits the measured activity by half. Broadly, the CC50 is the concentration that lowers cell viability or growth by half. Lower therefore signals harm at low concentration.

Consider `O=C(Cn1ccnc1[N+](=O)[O-])NCc1ccccc1` [Benznidazole, reference compound], for which the results for the IC50 in series [1] (setting [5]) and in series [1] (setting [6]) were 1 µg/mL and 3.81 µM, respectively. Moreover, the midpoint of cytotoxicity in series [2] (setting [7]), the CC50 at 96 h, lay at 625 µg/mL.

With `FC(F)(F)c1ccc(N2CCCCC2)c(-n2cc(COCc3ccccc3)nn2)c1` [Compound 6J], the 50% inhibitory concentration (IC50) in series [1] (setting [5]) is 6.5 µg/mL; in series [1] (setting [6]), 15.6 µM. Further, the CC50 at 96 h in series [2] (setting [7]) is more than 20 µg/mL; in series [2] (value in brackets) it was more than 48 µM.

In the case of `COc1ccc(COCc2cn(-c3cc(C(F)(F)F)ccc3N3CCOCC3)nn2)cc1` [Compound 6D], the “Selectivity index (SI)” value in series [1] is listed as more than 3.0. Further, the IC50 stood at 6.6 µg/mL in series [1] (setting [5]) and 15.7 µM in series [1] (setting [6]). In addition, the half-maximal cytotoxic concentration (CC50) at 96 h in series [2] (setting [7]) was more than 20 µg/mL; in series [2] (value in brackets), more than 47.6 µM.

On to `CCN(CC)c1ccc(C(F)(F)F)cc1-n1cc(COCc2ccc(Cl)cc2)nn1` [Compound 6F], for which the half-inhibitory concentration (IC50) result in series [1] was “Not active”.

`O=C1c2ccccc2C(=O)N1Cc1cn(-c2cc(C(F)(F)F)ccc2N2CCCCC2)nn1` [Compound 6I]: in series [1], the concentration for half-maximal inhibition (IC50) entry is given as “Not active”.

Consider `FC(F)(F)c1ccc(N2CCOCC2)c(-n2cc(COCc3ccc(Br)cc3)nn2)c1` [Compound 6C], for which the “Selectivity index (SI)” value in series [1] is 23.5. In addition, the IC50 in series [1] (setting [5]) is less than 5 µg/mL; in series [1] (setting [6]), 6.8 µM. Also, the CC50 at 96 h in series [2] (setting [7]) came out at 80 µg/mL; in series [2] (value in brackets), 161 µM.

As for `O=C1c2ccccc2C(=O)N1Cc1cn(-c2cc(C(F)(F)F)ccc2N2CCOCC2)nn1` [Compound 6A], in series [3], the “Cytotoxicity / cellular growth of U87MG lineage” value is listed as “no perceived cytotoxicity”. In addition, in series [1], the IC50 entry was “Not active”.

In the case of `FC(F)(F)c1ccc(N2CCCCC2)c(-n2cc(COCc3ccc(Cl)cc3)nn2)c1` [Compound 6G], the IC50 was less than 5 µg/mL in series [1] (setting [5]) and 10.4 µM in series [1] (setting [6]). The CC50 at 96 h in series [2] (setting [7]) is more than 160 µg/mL; in series [2] (value in brackets) it was more than 355 µM.

Regarding `FC(F)(F)c1ccc(N2CCOCC2)c(-n2cc(COCc3ccccc3)nn2)c1` [Compound 6E], in series [4], the Reduction in parasitemia result is reported as “reduction in parasitemia; also recorded: effectively reduced”, the “Overall performance in vivo compared with BZ” value is “inferior overall performance”, the “Parasitemia compared to infected untreated animals” value is listed as “significantly reduced” and the “Parasitemia compared to the untreated group” value is reported as “did not markedly reduce parasitemia”. Also, the “Selectivity index (SI)” value in series [1] is given as 125.2. The IC50 in series [1] (setting [5]) came to 0.5 µg/mL. For the same molecule, the concentration for half-maximal inhibition (IC50) in series [1] (setting [6]) was found to be 1.3 µM. In addition, in series [2] (setting [7]), the half-maximal cytotoxic concentration (CC50) at 96 h turned out to be 62.6 µg/mL. The molecule further returned a CC50 at 96 h in series [2] (value in brackets) of 160 µM.

`FC(F)(F)c1ccc(N2CCCCC2)c(-n2cc(COCc3ccc(Br)cc3)nn2)c1` [Compound 6H]: in series [4], the Reduction in parasitemia entry is recorded as “reduction in parasitemia; also recorded: effectively reduced”, the “Overall performance in vivo compared with BZ” value is given as “inferior overall performance”, the “Parasitemia compared to infected untreated animals” value is given as “significantly reduced” and the “Parasitemia compared to the untreated group” value is recorded as “did not markedly reduce parasitemia”. Besides, the “Selectivity index (SI)” value in series [1] is on record as more than 69. In addition, the IC50 in series [1] (setting [6]) was 4.6 µM. In series [2] (setting [7]), this molecule came in with a 50% cytotoxic concentration (CC50) at 96 h of more than 160 µg/mL. In addition, the CC50 at 96 h in series [2] (value in brackets) was more than 323 µM.

Take `COc1ccc(COCc2cn(-c3cc(C(F)(F)F)ccc3N3CCCCC3)nn2)cc1` [Compound 6K]: the half-inhibitory concentration (IC50) in series [1] (setting [5]) came out at 10.5 µg/mL; in series [1] (setting [6]) it was 23.5 µM. Further, the results for the half-maximal cytotoxic concentration (CC50) at 96 h in series [2] (setting [7]) and in series [2] (value in brackets) were more than 20 µg/mL and more than 45 µM, respectively.

With `FC(F)(F)c1ccc(N2CCOCC2)c(-n2cc(COCc3ccc(Cl)cc3)nn2)c1` [Compound 6B], the “Selectivity index (SI)” value in series [1] is 15.7. For the same molecule, in series [1] (setting [6]), the IC50 turned out to be 5 µM. For the same molecule, the CC50 at 96 h in series [2] (setting [7]) turned out to be 36.1 µg/mL; in series [2] (value in brackets), 79 µM.
